# Patent publication US6541463B1, “Inhibitors of type 5 and type 3 17β-hydroxysteroid dehydrogenase and methods for their use” (Endorecherche, Inc., priority 1998, dated 2003)
# Read-outs that look alike come from different tables or passages of the source.
# Assays:
# [1] = biological target: T1, androgen receptor (Rattus norvegicus, UniProt P15207); assay: Androgen receptor (AR) assay: inhibition of [3H]R1881 binding, prostate cytosol
# T1 construct: from tissue; host or cells: ventral prostate cytosol of gonadectomized male Sprague-Dawley rats
# T1 sequence (P15207 1-902): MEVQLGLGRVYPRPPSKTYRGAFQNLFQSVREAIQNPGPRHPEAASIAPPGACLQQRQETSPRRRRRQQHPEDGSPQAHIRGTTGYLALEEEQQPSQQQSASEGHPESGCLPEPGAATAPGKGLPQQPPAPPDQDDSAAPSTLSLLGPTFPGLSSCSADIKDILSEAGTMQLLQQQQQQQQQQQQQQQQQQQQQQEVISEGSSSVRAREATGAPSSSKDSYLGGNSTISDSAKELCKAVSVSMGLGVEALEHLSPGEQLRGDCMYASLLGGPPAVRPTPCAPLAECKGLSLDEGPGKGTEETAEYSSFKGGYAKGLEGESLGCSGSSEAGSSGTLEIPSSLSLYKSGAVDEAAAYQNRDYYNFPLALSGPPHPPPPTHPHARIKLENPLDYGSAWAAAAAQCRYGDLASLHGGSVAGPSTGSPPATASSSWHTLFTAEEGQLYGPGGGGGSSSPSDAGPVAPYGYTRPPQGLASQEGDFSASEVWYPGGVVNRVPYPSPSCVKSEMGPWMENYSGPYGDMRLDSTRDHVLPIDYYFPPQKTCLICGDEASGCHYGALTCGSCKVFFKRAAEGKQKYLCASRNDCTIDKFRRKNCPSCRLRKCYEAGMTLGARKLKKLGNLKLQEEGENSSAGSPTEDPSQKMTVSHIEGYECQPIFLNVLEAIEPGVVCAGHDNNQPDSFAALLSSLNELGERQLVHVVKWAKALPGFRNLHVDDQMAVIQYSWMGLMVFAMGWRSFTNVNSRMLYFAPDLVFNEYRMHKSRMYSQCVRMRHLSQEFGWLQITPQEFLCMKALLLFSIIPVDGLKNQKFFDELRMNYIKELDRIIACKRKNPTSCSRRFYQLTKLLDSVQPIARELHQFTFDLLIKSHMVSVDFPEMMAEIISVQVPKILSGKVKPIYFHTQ
# Protocol: The manner in which the percentage of inhibition is determined is described in “Other Tests; D-Androgen Receptor (AR) Assays”. Lower numbers are desirable.
# (§1) Male Sprague-Dawley rats (Crl: CD(SD)Br) weighing 200-300 g were obtained from Charles-River Inc. (St-Constant, Québec, Canada). The rats were gonadectomized under general anesthesia (Isoflurane) and killed by cervical dislocation 24 hours later. The ventral prostates were rapidly removed, dissected free from adhering tissue and frozen on dry-ice. Prostates were kept at −80° C. until assay.
# All subsequent steps were performed at 0-4° C. Prostates were homogenized in 5 vol (wt/vol) of buffer A (25 mM Tris-HCl, 1.5 mM EDTA disodium salt, 10 mM α-monothioglycerol, 10% glycerol, and 10 mM sodium molybdate, pH 7.4), using a Polytron PT-10 homogenizer (Brinkman Instruments, Canada) at a setting of 5 for three periods of 10 sec, with intervals of 10 sec for cooling. The homogenate was then centrifuged at 105,000×g for 60 min in a Beckman L5-65 ultracentrifuge (Fullerton, Calif.).
# Androgen binding was measured using the hydroxylapatite assay (HAP). In brief, the radioactive steroid [^3H]R1881 solubilized in ethanol was diluted into buffer A. Aliquots of prostate cytosol preparation (0.1 ml) were then incubated with 8 nM [^3H]R1881 (0.1 ml, ˜200,000 cpm) in the presence or absence of the indicated concentrations of unlabeled compounds (0.1 ml, prepared in buffer A containing 10% ethanol) for 16-18 h at 0-4° C. […] Unbound steroids were separated by incubation for 40 min at 0-4° C. with 0.3 ml HAP prepared in buffer P (50 mM, Tris-HCl, 10 mM KH2PO4, pH 7.4) as follows: 10 g HAP were washed with buffer P until the supernatant reached a pH of 7.4 and then following centrifugation and decantation of the supernatant, 37.5 ml of buffer P were added. After incubation with HAP and 10 minutes of centrifugation at 1,000×g, the pellet was washed 3 times with 1 ml buffer P. Thereafter, the radioactivity was extracted from the pellet by incubation at room temperature for 60 minutes with 1 ml EtOH. After centrifugation, the supernatant was decanted into a scintillation vial and the pellet was extracted again with ethanol.
# [2] = tested on: progesterone receptor; assay: Progesterone receptor assay: inhibition of [3H]R5020 binding, uterine cytosol; parameters: species or system rat
# Protocol: The manner in which the percentage of inhibition is determined is described in “Other Tests; E-Progesterone Receptor Assay”. Lower numbers are desirable.
# [17α-methyl-^3H]-promegestone (R5020) (84 Ci/mmol) and the corresponding unlabeled compound were purchased from New England Nuclear (Lachine, Québec, Canada). All other chemicals were of analytical grade.
# Stock solutions of the unlabeled steroids were kept at 4° C. in ethanol. The desired steroid solutions were then prepared by appropriate dilution in buffer B (10 mM Tris-HCl, 1.5 mM EDTA, 10 mM α-monothioglycerol, pH 7.4) containing 30% ethanol.
# as §1, with “Female” for “Male”, “rats” for “rats (Crl: CD(SD)Br)”, “uteri are” for “ventral prostates were”, “Tissues” for “Prostates”, “use.” for “assay.”
# All procedures were performed at 4° C. Tissues were pulverized frozen in dry ice with a Thermovac pulverizer. The samples were then homogenized in 10 vol (w/v) of buffer A (25 mM Tris-HCl, 1.5 mM EDTA, 10 mM α-monothioglycerol, 10% glycerol, 10 mM sodium molybdate, pH 7.4) using a Polytron PT-10 homogenizer (Brinkmann Instruments, Canada) at a setting of 5 for two periods of 10 sec, with intervals of 10 sec for cooling. The homogenate was then centrifuged at 105,000×g for 90 min. The supernatant was used immediately for assay.
# Progesterone binding was measured using the dextran-coated charcoal adsorption technique. […] Each concentration was done in triplicate. Assay was ended with 300 μl of DCC (1% Norit A and 0.1% Dextran T-70 in Buffer B). After 10 min of incubation, tubes were centrifuged at 2,000×g for 10 min. and decanted in vials with 6 ml of BCS liquid scintillation (New England Nuclear, Dupont). The radioactivity was measured in a Beckman counter at a counting efficiency of 35%.
# [3] = read-out: % Inhibition Androgen Receptor E^−6
# [4] = read-out: % Inhibition Androgen Receptor E^−8
structure (smiles),measurement,setting,value
CC12C=CC(=O)C=C1C=CC1C2CCC2(C)C(=O)C3(CCCCC3)CC12 (stereo not shown) [CS-204],inhibition at 1 µM,[1]; E^−6,5%
same,inhibition at 0.01 µM,[1]; E^−8,0%
same,% Inhibition Progesterone Receptor E^−6,[2]; E^−6,2%
same,% Inhibition Progesterone Receptor E^−8,[2]; E^−8,0%
CC1(C)CCC2(CCC3C4CCc5ccccc5C4CCC32C)OC1=O (stereo not shown) [CS-224],inhibition at 1 µM,"[1]; Table 4′, E^−6",0%
same,inhibition at 0.01 µM,"[1]; Table 4′, E^−8",0%
same,% Inhibition Progesterone Receptor E^−6,"[2]; Table 4′, E^−6",5%
same,% Inhibition Progesterone Receptor E^−8,"[2]; Table 4′, E^−8",2%
CC(=O)O[C@]1(C)C(=O)CCC2C3C=C(C)C4=CC(=O)C=C[C@]4(C)C3CC[C@@]21C (stereo partly shown) [CS-237],inhibition at 1 µM,[1]; [3],11%
same,inhibition at 0.01 µM,[1]; [4],0%
same,% Inhibition Progesterone Receptor E^−6,[2]; E^−6,0%
same,% Inhibition Progesterone Receptor E^−8,[2]; E^−8,0%
"CSCCOc1ccc2c(c1)CCC1C2CCC2(C)C1CCC21CCCC(=O)O1 [CS-242, 3-Methylthioethyloxy-1,3,5(10)-estratrien-17(R)-spiro-2′-(6′-oxo) Tetrahydropyran]",inhibition at 1 µM,"[1]; Table 4′, E^−6",0%
same,inhibition at 0.01 µM,"[1]; Table 4′, E^−8",0%
same,% Inhibition Progesterone Receptor E^−6,"[2]; Table 4′, E^−6",0%
same,% Inhibition Progesterone Receptor E^−8,"[2]; Table 4′, E^−8",0%
CCC(=O)O[C@]1(C(C)=O)CCC2C3C=C(C)C4=CC(=O)C[C@H](C)[C@]4(C)C3CC[C@@]21C (stereo partly shown) [CS-243],% Inhibition Androgen Receptor,[1]; E^−6,33%
same,% Inhibition Androgen Receptor,[1]; E^−8,0%
same,% Inhibition Progesterone Receptor,[2]; E^−6,27%
same,% Inhibition Progesterone Receptor,[2]; E^−8,0%
CCCC(=O)OC1(C(C)=O)CCC2C3C=C(C)C4=CC(=O)CC(C)C4(C)C3CCC21C (stereo not shown) [CS-245],% Inhibition Androgen Receptor,[1]; E^−6,71%
same,% Inhibition Androgen Receptor,[1]; E^−8,5%
same,% Inhibition Progesterone Receptor,[2]; E^−6,26%
same,% Inhibition Progesterone Receptor,[2]; E^−8,0%
"C[C@]12CCC3c4ccc(O)cc4CCC3C1CC[C@@]21CCCC(=O)O1 (stereo partly drawn) [EM-919, 1,3,5(10)-estratrien-3-ol-17(R)-spiro-2′(6′-oxo)tetrahydropyran]",% Inhibition Androgen Receptor *E^−5,"[1]; Table 4′, starred values, E^−5",6* %
same,% Inhibition Androgen Receptor *E^−7,"[1]; Table 4′, starred values, E^−7",0* %
same,% Inhibition Progesterone Receptor *E^−5,"[2]; Table 4′, starred values, E^−5",68* %
same,% Inhibition Progesterone Receptor *E^−7,"[2]; Table 4′, starred values, E^−7",8* %
"COC(=O)CCCC(=O)O[C@]1(C(C)=O)CC[C@H]2[C@@H]3C=C(C)C4=CC(=O)CC[C@]4(C)[C@H]3CC[C@@]21C [EM-1007, 6-Methyl-4,6-pregnadien-17α-ol-3,20-dione 4′-Carbomethoxybutyrate]",% Inhibition Androgen Receptor,[1]; E^−6,0%
same,% Inhibition Androgen Receptor,[1]; E^−8,0%
same,% Inhibition Progesterone Receptor,[2]; E^−6,0%
same,% Inhibition Progesterone Receptor,[2]; E^−8,0%
CC1CCC2(CCC3C4CCc5ccccc5C4CCC32C)OC1=O (stereo not shown) [EM-1025],inhibition at 1 µM,"[1]; Table 4′, E^−6",0%
same,inhibition at 0.01 µM,"[1]; Table 4′, E^−8",0%
same,% Inhibition Progesterone Receptor E^−6,"[2]; Table 4′, E^−6",4%
same,% Inhibition Progesterone Receptor E^−8,"[2]; Table 4′, E^−8",0%
CCCC(=O)O[C@]1(C)C(=O)CCC2C3C=C(C)C4=CC(=O)CC[C@]4(C)C3CC[C@@]21C (stereo partly shown) [EM-1078],inhibition at 1 µM,[1]; [3],83%
same,inhibition at 0.01 µM,[1]; [4],7%
same,% Inhibition Progesterone Receptor E^−6,[2]; E^−6,53%
same,% Inhibition Progesterone Receptor E^−8,[2]; E^−8,0%
CCC[C@@H]1CC2C3C=CC4=CC(=O)CC[C@]4(C)C3CC[C@]2(C)C1=O (stereo partly shown) [EM-1097],inhibition at 1 µM,[1]; E^−6,5%
same,inhibition at 0.01 µM,[1]; E^−8,0%
same,% Inhibition Progesterone Receptor E^−6,[2]; E^−6,0%
same,% Inhibition Progesterone Receptor E^−8,[2]; E^−8,2%
CN1C(=O)C=C[C@]2(C)C3CC[C@@]4(C)C(CC[C@@]45CCCC(=O)O5)C3CCC12 (stereo partly shown) [EM-1122-CS],inhibition at 1 µM,"[1]; Table 5 column 13, E^−6",8%
same,inhibition at 0.01 µM,"[1]; Table 5 column 13, E^−8",1%
same,% Inhibition Progesterone Receptor E^−6,"[2]; Table 5 column 14, E^−6",3%
same,% Inhibition Progesterone Receptor E^−8,"[2]; Table 5 column 14, E^−8",0%
"C[C@]12CCC3c4cc([N+](=O)[O-])c(O)cc4CCC3C1CC[C@@]21CCCC(=O)O1 (stereo partly drawn) [EM-1124, 2-Nitro-1,3,5(10)-estraetriene-3-ol-17(R)-spiro-2′-(6′-oxo)tetrahydropyran]",inhibition at 1 µM,"[1]; Table 4′, E^−6",7%
same,inhibition at 0.01 µM,"[1]; Table 4′, E^−8",1%
same,% Inhibition Progesterone Receptor E^−6,"[2]; Table 4′, E^−6",20%
same,% Inhibition Progesterone Receptor E^−8,"[2]; Table 4′, E^−8",1%
CC1(C)CCC2(CCC3C4CCc5cc(O)c([N+](=O)[O-])cc5C4CCC32C)OC1=O (stereo not shown) [EM-1125-CS],inhibition at 1 µM,"[1]; Table 4′, E^−6",1%
same,inhibition at 0.01 µM,"[1]; Table 4′, E^−8",2%
same,% Inhibition Progesterone Receptor E^−6,"[2]; Table 4′, E^−6",7%
same,% Inhibition Progesterone Receptor E^−8,"[2]; Table 4′, E^−8",5%
"CC1CCC2(CCC3C4CCc5cc(O)c([N+](=O)[O-])cc5C4CCC32C)OC1=O [EM-1126, 2-Nitro-1,3,5(10)-estratrien-3-ol-17(R)-spiro-2′-(5′-methyl-6′-oxo)tetrahydropyran]",% Inhibition Androgen Receptor E^−6,"[1]; Table 4′, E^−6",10%
same,% Inhibition Androgen Receptor E^−8,"[1]; Table 4′, E^−8",2%
same,% Inhibition Progesterone Receptor E^−6,"[2]; Table 4′, E^−6",14%
same,% Inhibition Progesterone Receptor E^−8,"[2]; Table 4′, E^−8",5%
"CC1CCC2(CCC3C4CCc5cc(O)c([N+](=O)[O-])cc5C4CCC32C)OC1=O [EM-1131, 2-Nitro-1,3,5(10)-estratrien-3-ol-17(R)-spiro-2′-(5′-methyl-6′-oxo)tetrahydropyran]",% Inhibition Androgen Receptor E^−6,"[1]; Table 4′, E^−6",1%
same,inhibition at 0.01 µM,"[1]; Table 4′, E^−8",2%
same,% Inhibition Progesterone Receptor E^−6,"[2]; Table 4′, E^−6",10%
same,% Inhibition Progesterone Receptor E^−8,"[2]; Table 4′, E^−8",2%
CC1(C)CC[C@@]2(CCC3C4CCc5cc(F)ccc5C4CC[C@@]32C)OC1=O (stereo partly shown) [EM-1157-CS],inhibition at 1 µM,"[1]; Table 4′, E^−6",0%
same,inhibition at 0.01 µM,"[1]; Table 4′, E^−8",0%
same,% Inhibition Progesterone Receptor E^−6,"[2]; Table 4′, E^−6",5%
same,% Inhibition Progesterone Receptor E^−8,"[2]; Table 4′, E^−8",2%
CC(=O)O[C@]1(C(=O)N(C)C)CCC2C3C=C(C)C4=CC(=O)CC[C@]4(C)C3CC[C@@]21C (stereo partly shown) [EM-1159],% Inhibition Androgen Receptor,[1]; E^−6,1%
same,% Inhibition Androgen Receptor,[1]; E^−8,1%
same,% Inhibition Progesterone Receptor,[2]; E^−6,4%
same,% Inhibition Progesterone Receptor,[2]; E^−8,2%
"CC(=O)O[C@]1(C(C)=O)CCC2C3C=C(C)C4=CC(=O)CC[C@]4(C)C3CC[C@@]21C (stereo partly shown) [megestrol acetate, reference compound]",% Inhibition Progesterone Receptor,[2]; * E^−5,97* %
same,% Inhibition Progesterone Receptor,[2]; * E^−7,36* %
same,% Inhibition Progesterone Receptor,[2]; E^−6,77%
same,% Inhibition Progesterone Receptor,[2]; E^−8,3%
